Measured values: patent publication US20250163016A1, “PYRIDINE DERIVATIVE, PREPARATION METHOD THEREFOR AND USE THEREOF” (CHENGDU EASTON BIOPHARMACEUTICALS CO., LTD., priority 2022, published 2025)

Experiments:
Kasumi-1 cells = test: Kasumi-1 cell proliferation inhibition test (Celltiter GLO); type: cell-based; conditions: Homo sapiens, 168 h, Kasumi-1, 7 days culture
Protocol: Research had confirmed that LSD1 played a crucial role in the occurrence process of various types of cancers, including small cell lung cancer (SCLC) and acute myeloid leukemia (AML). Therefore, a human acute myeloid leukemia (Kasumi-1) cell line was used to determine the ATP content in cells at different drug concentrations using a Celltiter GLO assay kit, the cell activity was reflected by luminescence intensity, and IC50 values of different compounds on Kasumi-1 cells were calculated using inhibition rates. The inhibitory effects of the compounds in the present application on the proliferation of Kasumi-1 cells were studied to evaluate the anti-tumor efficacy of the tested compounds at the cellular level.
• Day 1 Cells were seeded into the 384-well cell culture plate and placed in a 37° C. 5% CO2 cell incubator to be cultured overnight. • Day 0 The compound to be tested was prepared into a 10 mM mother liquid using DMSO, starting from […], diluted by 3 folds, with 10 concentration points and double duplicate wells. A diluted compound was added into the 384-well cell culture plate and placed in a 37° C. 5% CO2 cell incubator to be cultured for 7 days. The concentration of the DMSO in a cell culture system was 0.1 vol %. • Day 7 Celltiter GLO was added into the 384-well cell culture plate according to a volume ratio of culture system:Celltiter GLO=1:1, light-shielded oscillation was carried out on a plate oscillator for 3 min, then the cell culture plate was placed at the room temperature for 30 min with light shielded, and the plate was read using a multifunctional microplate reader chemical light emitting module.
An inhibition rate was calculated by utilizing luminescence intensity of the above DMSO group (with DMSO added), test group (with the tested compound or a positive control solution added) and blank group (not treating cells), and a calculation formula was as follows: […]
Using a logarithm of the concentration as an X axis and the percentage inhibition rate as a Y axis, a dose-response curve was fitted using a formula log(inhibitor) vs. response-Variable slope (Four parameters) of analysis software Graphpad Prism 8 to obtain the IC50 value of each compound on Kasumi-1 proliferation inhibition activity.

[1] = Pharmacokinetics of oral and intravenous administration of rats; type: in vivo; conditions: male, rat, plasma, SD rats; for bioavailability: oral, p.o. 5.0 mg/kg vs i.v. 5.0 mg/kg, read-out: F (bioavailability)
Protocol: With SD rats as tested animals, blood drug concentrations of the compounds of the present application in plasma at different moments after oral administration and intravenous administration to the rats were determined using an LC-MS/MS method, pharmacokinetic parameters and bioavailabilities of the compounds of the present application in the rats were obtained, and pharmacokinetic characteristics of the compounds were studied.
• SD rats, male, weight 180-220 g, 3 rats per group. The animals were fed in an animal house after being purchased, an adaptation period was at least 3 days, and they were used for tests after passing quarantine.
3.2. Solvent: p.o.: 0.5% Sodium Methylcellulose Aqueous Solution
• i.v.: 5% DMSO+10% Solutol+85% Saline
According to Table 6, each group of rats was given the corresponding tested drugs or positive drugs by gavage, before administration, and 5 min, 15 min, 30 min, 1 h, 2 h, 4 h, 6 h, 8 h, 10 h and 24 h after administration, a fixed volume of blood was collected through eye sockets and placed in an EDTA-K2 anticoagulant tube, centrifuging was carried out at 8000 rpm for 1 min to separate plasma into a centrifuge tube, and the plasma was frozen in a −20° C. refrigerator.
The plasma at each time point stored at −20° C. was taken out, then acetonitrile was added, after whirling at 1500 revolutions for 2 min, centrifuging was carried out for 15 min (3500 r/min), and a fixed volume of solution supernatant was taken for LC-MS/MS analysis.
Non-compartment model fitting was carried out on pharmacokinetic behaviors of the tested compounds, and DAS3.31 software was adopted to calculate main pharmacokinetic parameters (T1/2, Tmax, Cmax, AUClast, etc.).

[2] = test system: Kasumi-1 cell subcutaneous heterograft tumor; test: In-vivo efficacy in Kasumi-1 cell subcutaneous heterograft tumor model; conditions: for weight of the mice after administration / tolerance of the tested animals: Kasumi-1 xenograft mice; for weight of the mice after administration: FIG. 3; for tolerance of the tested animals: qd p.o. 20 days; for TGI: Kasumi-1 xenograft, qd, p.o., 20 days
Protocol: • RPMI 1640 culture medium containing 20% fetal bovine serum (FBS), 37° C., 5% CO2.
• Solvent: 0.5% methylcellulose aqueous solution; • Tested drug: compounds 16 and 36.
(§1) CB17 SCID mice, female, 6-8 weeks, weight about 18-22 grams, and each mouse was subcutaneously inoculated with 0.1 mL (1×10^7 cells+matrigel) of Kasumi-1 cells on the right side. When an average volume of tumors reached 100-200 cubic millimeters, group administration was performed, see the table below (Table 12) for administration dosages and methods. The tumor volume was measured twice a week, the weights of the mice as well as lengths and widths of tumors were recorded in each time of measurement, and the tumor volume=length×width×width/2 mm^3. When the average tumor volume of a solvent group grew to 3000 cubic millimeters or above, administration was ended, each group of mice was killed and dissected to take out tumor lumps, the tumor weight of each mouse was weighed and the tumor volume was measured, and an average tumor volume difference between a tested compound group and the solvent group was obtained via comparison. The tumor suppression effects of the compounds were evaluated with TGI (%), which could reflect a tumor growth inhibition rate.
Calculation of TGI (%):TGI (%)=[1−(current average tumor volume of compounds−average tumor volume at the beginning of compounds)/(current average tumor volume of solvent group−average tumor volume at the beginning of solvent group)]×100%

[3] = test system: HL-60 cell subcutaneous heterograft tumor; test: In-vivo efficacy in HL-60 cell subcutaneous heterograft tumor model; parameters: species or system Balb/C nu mice; conditions: HL-60 xenograft, qd, p.o., 10 mg/Kg, 10 days
Protocol: • DMEM culture medium containing 10% fetal bovine serum (FBS), 37° C., 5% CO2.
as §1, with “Balb/C nu” for “CB17 SCID”, “HL-60” for “Kasumi-1”, “13)” for “12)”, “ended,” for “ended, each group of mice was killed and dissected to take out tumor lumps, the tumor weight of each mouse was weighed and the tumor volume was measured,”

[4] = iv, i.v. 5.0 mg/kg, 5% DMSO+10% Solutol+85% Saline
[5] = po, p.o. 5.0 mg/kg, 0.5% sodium methylcellulose aqueous solution

Compound | IC50 (Kasumi-1 cells) | AUC(0-t) [1, 4] | Cmax [1, 4] | Tmax [1, 4] | half-life [1, 4] | bioavailability [1] | AUC(0-t) [1, 5] | Cmax [1, 5] | Tmax [1, 5] | half-life [1, 5] | weight of the mice after administration [2] | tolerance of the tested animals [2] | TGI ([2]; 3.5 mg/Kg) | TGI ([2]; 5 mg/Kg) | TGI [3]
CC(C)(O)Cn1ncc2cc(-c3c(C#N)cc(N4CCC(N)CC4)nc3-c3ccc(C#N)c(F)c3)c(F)cc21 [Compound 16, 6-(4-aminopiperid-1-yl)-2-(4-cyano-3-fluorophenyl)-3-(6-fluoro-1-(2-hydroxyl-2-methylpropyl)-1H-indazol-5-yl)isonicotinonitrile] | 0.59 nM | 1490 ± 157 ng·h/mL | 765 ± 181 ng/mL | 0.08 h | 5.61 ± 1.29 h | 46.2% | 693 ± 248 ng·h/mL | 75.2 ± 20.3 ng/mL | 4 h | 4.73 ± 0.22 h | does not decrease | good tolerance | 78.28% | 86.13% | 73.2%
COc1ccc(-c2c(-c3ccc(C#N)c(F)c3)nc(N3CCC(N)CC3)n(C)c2=O)cc1F [CC-90011, reference compound] | 3.18 nM | 906 ± 194 ng·h/mL | 895 ± 90.4 ng/mL | 0.08 h | 3.32 ± 0.72 h | 32.1% | 299 ± 178 ng·h/mL | 49.2 ± 8.71 ng/mL | 2.67 ± 1.15 h | 4.15 ± 0.7 h |  |  |  |  | 35.3%
CC(C)(O)Cn1nc(F)c2cc(-c3c(C#N)cc(N4CCC(N)CC4)nc3-c3ccc(C#N)c(F)c3)c(F)cc21 [Compound 36, 6-(4-aminopiperid-1-yl)-2-(4-cyano-3-fluorophenyl)-3-(3,6-difluoro-1-(2-hydroxyl-2-methylpropyl)-1H-indazol-5-yl)isonicotinonitrile] |  |  |  |  |  |  |  |  |  |  | does not decrease | good tolerance |  | 84.87% | 
